From patent publication US12728119B2, “Pharmaceutical composition for preventing or treating cancer comprising 3-ketoacyl CoA thiolase inhibitor and carnitine acylcarnitine carrier inhibitor” (NATIONAL CANCER CENTER, priority 2020, dated 2026)
“And” between values parts separate entries of the source, which are not always exact repeats. Equal entries are not always repeated.

What was measured:
Format in all cases: cell-based
[1] = test system: cancer cells; assay: SRB analysis 3, triple combination, summary over cancer panels
Procedure: (§1) Through SRB analysis (n=3), the effect of triple combination treatment of a CAC inhibitor (KN510: omeprazole), ACAA inhibitor (KN713: trimetazidine) and other anticancer drug on cell growth in the cancer cells was analyzed. (see Table 11).
(§2) The SRB assay was performed as follows: each cell line (100 μl) was seeded into 96-well microtiter plates at densities ranging from 5,000 to 40,000 cells/well depending on the doubling time of each cell line. After 24 hours, drug (100 μl per well) was added to each well and the culture was incubated at 37° C. for 48 hours. Cells were then fixed in 50% TCA (50 μl per well) and plates were incubated at 4° C. for a minimum of 1 hour or a maximum of 3 hours. After that, the liquid was removed from the plate, then rinsed 5 times with water and dried for approximately 12-24 hours at room temperature (RT). After the fixed cells were stained with 0.4% SRB (100 μl per well) for 10 minutes at room temperature, the plates were washed 3 times with 1% glacial acetic acid and dried at room temperature for about 12-24 hours. SRB staining was dissolved in 10 mM Trizma base and absorbance was read at 515 nm. The effect of the drug was expressed as GI50 (50% growth inhibition), TGI (total growth inhibition) or LC50 (lethal concentration). GI50 is the maximum concentration at the moment of 50% inhibition of cell proliferation and IC50 is the concentration of the drug that inhibits the enzyme activity in vitro by 50% in this study.

[2] = test system: ACHN renal cancer cell line; assay: SRB analysis 3; conditions: 48 hours
Procedure: as §1, §2

[3] = test system: MKN45 gastric cancer cell line; assay: SRB analysis 3; conditions: 48 hours
Procedure: as §1, §2

[4] = test system: MCF7 breast cancer cell line; assay: SRB analysis 3; conditions: 48 hours
Procedure: as §1, §2

[5] = test system: SK-OV-3 ovarian cancer cell line; assay: SRB analysis 3; conditions: 48 hours
Procedure: as §1, §2

[6] = test system: COLO-205 colon cancer cell line; assay: SRB analysis 3; conditions: 48 hours
Procedure: as §1, §2

[7] = test system: UACC62 melanoma cell line; assay: SRB analysis 3; conditions: 48 hours
Procedure: as §1, §2

[8] = test system: PC-3 prostate cancer cell line; assay: SRB analysis 3; conditions: 48 hours
Procedure: as §1, §2

[9] = test system: SK-hep-1 liver cancer cell line; assay: SRB analysis 3; conditions: 48 hours
Procedure: as §1, §2

[10] = test system: H1975 non-small cell lung cancer (NSCLC) cell line; assay: SRB analysis 3; conditions: 48 hours
Procedure: as §1, §2

[11] = test system: MDA-MB-231 breast cancer cell line; assay: SRB analysis 3; conditions: 48 hours
Procedure: as §1, §2

[12] = test system: DU145 prostate cancer cell line; assay: SRB analysis 3; conditions: 48 hours
Procedure: as §1, §2

[13] = test system: Caki-1 renal cancer cell line; assay: SRB analysis 3; conditions: 48 hours
Procedure: as §1, §2

[14] = test system: AGS gastric cancer cell line; assay: SRB analysis 3; conditions: 48 hours
Procedure: as §1, §2

[15] = test system: OVCAR-8 ovarian cancer cell line; assay: SRB analysis 3; conditions: 48 hours
Procedure: as §1, §2

[16] = test system: AsPC-1 pancreatic cancer (PDAC) cell line; assay: SRB analysis 3; conditions: 48 hours
Procedure: as §1, §2

[17] = test system: HCT-116 colon cancer cell line; assay: SRB analysis 3; conditions: 48 hours
Procedure: as §1, §2

[18] = test system: A375 melanoma cell line; assay: SRB analysis 3; conditions: 48 hours
Procedure: as §1, §2

[19] = test system: A549 non-small cell lung cancer (NSCLC) cell line; assay: SRB analysis 3; conditions: 48 hours
Procedure: as §1, §2

[20] = test system: Huh-7 liver cancer cell line; assay: SRB analysis 3; conditions: 48 hours
Procedure: as §1, §2

[21] = test system: MIA PaCa-2 pancreatic cancer (PDAC) cell line; assay: SRB analysis 3; conditions: 48 hours
Procedure: as §1, §2

[22] = test system: U87MG glioblastoma (GBM) cell line; assay: SRB analysis 3; conditions: Cisplatin 1 μM, 48 hours
Procedure: as §2, with “Through SRB analysis (n=3), the effect of triple combination treatment of a CAC inhibitor ([…] inhibitor (KN713: trimetazidine) and other anticancer drug on cell growth in the cancer cells was analyzed. (see Table 11). The” for “The”, “nm.” for “nm. The effect of the drug was expressed as GI50 (50% growth inhibition), TGI (total growth inhibition) or LC50 (lethal concentration). GI50 is the maximum concentration at the moment of 50% inhibition of cell proliferation and IC50 is the concentration of the drug that inhibits the enzyme activity in vitro by 50% in this study.”

[23] = test system: T87G glioblastoma (GBM) cell line; assay: SRB analysis 3; conditions: Cisplatin 1 μM, 48 hours
Procedure: as §2, with “Through SRB analysis (n=3), the effect of triple combination treatment of a CAC inhibitor ([…] inhibitor (KN713: trimetazidine) and other anticancer drug on cell growth in the cancer cells was analyzed. (see Table 11). The” for “The”, “nm.” for “nm. The effect of the drug was expressed as GI50 (50% growth inhibition), TGI (total growth inhibition) or LC50 (lethal concentration). GI50 is the maximum concentration at the moment of 50% inhibition of cell proliferation and IC50 is the concentration of the drug that inhibits the enzyme activity in vitro by 50% in this study.”

[24] = test system: SNU-324 pancreatic cancer cells; assay: SRB analysis 2; conditions: SNU324; KN715 200 μM; 48 hours
Procedure: (§3) The SRB assay was performed as follows: each cell line (100 μl) was seeded into 96-well microtiter plates at densities ranging from 5,000 to 20,000 cells/well depending on the doubling time of each cell line. After cell seeding, microtiter plates were incubated for 24 h before addition of experimental drug. Drugs were prepared at the indicated concentrations and 100 μl was added to each well; The plates were then incubated in a CO2 incubator. Then, cold TCA was added to terminate the assay. Cells were fixed in situ by gentle addition of 50 μl of cold 50% (w/v) TCA (final concentration: 10% TCA) and incubated at 4° C. for 60 min. The supernatant was discarded and the plate was washed 5 times with tap water and then air dried. A solution (100 μl) of 0.4% (w/v) SRB (Sulforhodamine B) in 1% acetic acid was added to each well, and the plate was left at room temperature for 10 minutes. After staining, the plates were air dried after washing 5 times with 1% acetic acid to remove unbound dye. The bound dye was then solubilized with 10 mM trizma base and the absorbance was recorded at 515 nm using an automated plate reader.

[25] = test system: SU.86.86 pancreatic cancer cells; assay: SRB analysis 2; conditions: KN715 200 μM, 48 hours
Procedure: as §3

[26] = test system: AsPC-1 pancreatic cancer cells; assay: SRB analysis 2; conditions: KN715 200 μM, 48 hours
Procedure: as §3

[27] = test system: MIA PaCa2 pancreatic cancer cells; assay: SRB analysis 2; conditions: MIA PaCa-2; KN715 200 μM; 48 hours
Procedure: as §3

[28] = test system: BxPC-3 pancreatic cancer cells; assay: SRB analysis 2; conditions: KN715 200 μM, 48 hours
Procedure: as §3

[29] = Breast Cancer, BT-549, MDA MB 231
[30] = Ovarian Cancer, SK-OV-3, OVCAR-3
[31] = Renal cell carcinoma, ACHN, CAKI-1

## O=c1[nH]cc(F)c(=O)[nH]1 [5-FU]
[1]; [29]
  Positive/Negative (triple combination of KN510, KN713 and the listed anticancer drug): negative
[1]; Colon Cancer, HT-29, COLO-205
  Positive/Negative (triple combination of KN510, KN713 and the listed anticancer drug): Positive
[1]; GBM, U87MG, T87G
  Positive/Negative (triple combination of KN510, KN713 and the listed anticancer drug): Positive
[1]; Liver Cancer, SNU-449, Huh-7
  Positive/Negative (triple combination of KN510, KN713 and the listed anticancer drug): Positive
[1]; NSCLC, A549, H522
  Positive/Negative (triple combination of KN510, KN713 and the listed anticancer drug): Positive
[1]; [30]
  Positive/Negative (triple combination of KN510, KN713 and the listed anticancer drug): negative
[1]; PDAC, MIA PaCa-2, PANC-1
  Positive/Negative (triple combination of KN510, KN713 and the listed anticancer drug): Positive
[1]; Prostate Cancer, PC-3, DU-145
  Positive/Negative (triple combination of KN510, KN713 and the listed anticancer drug): Positive
[1]; [31]
  Positive/Negative (triple combination of KN510, KN713 and the listed anticancer drug): Positive
[1]; Stomach Cancer, MKN-28, AGS
  Positive/Negative (triple combination of KN510, KN713 and the listed anticancer drug): Positive
[1]; melanoma, UACC62, A375
  Positive/Negative (triple combination of KN510, KN713 and the listed anticancer drug): negative
[2]; 5-FU 5 μM
  cell growth (Control = 100): 26.38
[3]; MKN45, 5-FU 5 μM
  cell growth (Control = 100): 51.03
[4]; 5-FU 5 μM
  cell growth (Control = 100): 11.29
[5]; 5-FU 5 μM
  cell growth (Control = 100): 80.76
[6]; 5-FU 5 μM
  cell growth (Control = 100): −4.957
[7]; 5-FU 5 μM
  cell growth (Control = 100): 59.14
[8]; 5-FU 5 μM
  cell growth (Control = 100): 51.6552
[9]; 5-FU 5 μM
  cell growth (Control = 100): 149.7317
[10]; 5-FU 5 μM
  cell growth (Control = 100): 58.333
[11]; 5-FU 5 μM
  cell growth (Control = 100): 73.95
[12]; 5-FU 5 μM
  cell growth (Control = 100): 59.63
[13]; 5-FU 5 μM
  cell growth (Control = 100): 59.41
[14]; 5-FU 5 μM
  cell growth (Control = 100): 39.84
[15]; 5-FU 5 μM
  cell growth (Control = 100): 77.83
[16]; 5-FU 10 μM
  cell growth (Control = 100): 64.54
[17]; 5-FU 5 μM
  cell growth (Control = 100): 14.62
[18]; 5-FU 5 μM
  cell growth (Control = 100): 95.91
[19]; 5-FU 5 μM
  cell growth (Control = 100): 28.5
[20]; 5-FU 5 μM
  cell growth (Control = 100): 34.9345
[21]; 5-FU 10 μM
  cell growth (Control = 100): 36.7557

## N.N.[Cl][Pt][Cl] [Cisplatin]
[22]
  cell growth (Control = 100): 87.30
[23]
  cell growth (Control = 100): 120.49
[1]; [29]
  Positive/Negative (triple combination of KN510, KN713 and the listed anticancer drug): negative
[1]; Colon Cancer, HT-29, COLO-205
  Positive/Negative (triple combination of KN510, KN713 and the listed anticancer drug): negative
[1]; GBM, U87MG, T87G
  Positive/Negative (triple combination of KN510, KN713 and the listed anticancer drug): negative
[1]; Liver Cancer, SNU-449, Huh-7
  Positive/Negative (triple combination of KN510, KN713 and the listed anticancer drug): negative
[1]; NSCLC, A549, H522
  Positive/Negative (triple combination of KN510, KN713 and the listed anticancer drug): negative
[1]; [30]
  Positive/Negative (triple combination of KN510, KN713 and the listed anticancer drug): negative
[1]; PDAC, MIA PaCa-2, PANC-1
  Positive/Negative (triple combination of KN510, KN713 and the listed anticancer drug): negative
[1]; Prostate Cancer, PC-3, DU-145
  Positive/Negative (triple combination of KN510, KN713 and the listed anticancer drug): negative
[1]; [31]
  Positive/Negative (triple combination of KN510, KN713 and the listed anticancer drug): negative
[1]; Stomach Cancer, MKN-28, AGS
  Positive/Negative (triple combination of KN510, KN713 and the listed anticancer drug): negative
[1]; melanoma, UACC62, A375
  Positive/Negative (triple combination of KN510, KN713 and the listed anticancer drug): negative
[2]; Cisplatin 1 μM
  cell growth (Control = 100): 118.1147
[3]; MKN-45, Cisplatin 1 μM
  cell growth (Control = 100): 96.28
[4]; Cisplatin 1 μM
  cell growth (Control = 100): 70.82
[5]; Cisplatin 1 μM
  cell growth (Control = 100): 75.0979
[6]; Cisplatin 1 μM
  cell growth (Control = 100): 83.44
[7]; Cisplatin 1 μM
  cell growth (Control = 100): 91.68
[8]; Cisplatin 1 μM
  cell growth (Control = 100): 67.15
[9]; Cisplatin 1 μM
  cell growth (Control = 100): 136.3148
[10]; Cisplatin 1 μM
  cell growth (Control = 100): 97.49
[11]; Cisplatin 1 μM
  cell growth (Control = 100): 93.91
[12]; Cisplatin 1 μM
  cell growth (Control = 100): 60.85
[13]; Cisplatin 1 μM
  cell growth (Control = 100): 113.4691
[14]; Cisplatin 1 μM
  cell growth (Control = 100): 74.02
[15]; Cisplatin 1 μM
  cell growth (Control = 100): 84.76
[16]; Cisplatin 1 μM
  cell growth (Control = 100): 94.84
[17]; Cisplatin 1 μM
  cell growth (Control = 100): 100.5484
[18]; Cisplatin 1 μM
  cell growth (Control = 100): 85.06
[19]; Cisplatin 1 μM
  cell growth (Control = 100): 75.07
[20]; Cisplatin 1 μM
  cell growth (Control = 100): 66.69
[21]; Cisplatin 1 μM
  cell growth (Control = 100): 95.91

## COc1ccccc1OCC(O)CN1CCN(CC(=O)Nc2c(C)cccc2C)CC1 (centres unmarked) [KN715, ranolazine]
[24]
  degree of cell growth based on the control (100%): 23.58% and 23.63% and 27.45%
[25]
  degree of cell growth based on the control (100%): 90.37% and 63.92% and 73.38%
[26]
  degree of cell growth based on the control (100%): 86.53% and 57.91% and 63.15%
[27]
  degree of cell growth based on the control (100%): 87.91% and 65.15% and 73.29%
[28]
  degree of cell growth based on the control (100%): 46.24% and 45.76% and 59.04%

## CCCS(=O)(=O)Nc1ccc(F)c(C(=O)c2c[nH]c3ncc(-c4ccc(Cl)cc4)cc23)c1F [Vermutafenib]
[7]; Vermutafenib 0.5 μM
  cell growth (Control = 100): 2.10
[18]; Vermutafenib 0.5 μM
  cell growth (Control = 100): 7.77
